The values below come from patent US20250197368A1 (priority 2020, published 2025).

Where two headings read alike, the source gives them in different places.

For experiment [1], the target named is human α2β3γ2 GABAARs (benzodiazepine site) (Homo sapiens (Human), UniProt P18507+P47869). In words: In vitro radioligand binding assay ([3H]Ro15-1788 displacement), α2-GABAAR Ki. The method, then:
The affinity (Ki) of compounds for the benzodiazepine site of human recombinant GABAARs was measured by their ability to inhibit the binding of the selective benzodiazepine antagonist [^3H]Ro15-1788 ([^3H] flumazenil).
Mouse L(tk^−) cells stably expressing human α1β3γ2, α2β3γ2, α3β3γ2, α5β3γ2 GABAARs were generated by transfection of the individual subunits in the dexamethasone-inducible expression vector pMSGneo in mouse L(tk^−) cells (Hadingham et al., 1993, Mol. Pharmacol. 43:970-975 and 1993, Mol. Pharmacol. 44:1211-1218).
L(tk^−) cells stably expressing human α1β3γ2, α2β3γ2, α3β3γ2, α5β3γ2 GABAARs were maintained in DMEM F12 medium supplemented with 10% Foetal Bovine Serum, 1% Penicillin/Streptomycin and 1 mg/mL Geneticin G418 in an incubator at 37° C. with a humidified atmosphere with 5% CO2. Dexamethasone was added to the culture medium to induce GABAAR expression.
L(tk−) cells were harvested and membranes were prepared for each receptor combination in either TE buffer (10 mM Tris·CI/0.1 mM EDTA, pH 7.5) or phosphate buffer (K2PO4 10 mM, pH 7.0) (Hadingham et al. (1992) Proc. Natl. Acad. Sci. USA; 89 (14): 6378-82). Protein concentration, receptor expression and the Kd of [^3H]Ro15-1788 were determined before Ki value of the compounds were evaluated. For Kd evaluation, saturation binding curves were obtained by incubating membrane with various concentrations of [^3H]Ro15-1788 (82.5 Ci/mM), with nonspecific binding measured in the presence of 1-3 μM TP003.
For Ki evaluation, cell membranes were incubated with 4 nM [^3H]Ro15-1788 along with a range of concentrations of test compound. Nonspecific binding was determined using 1-3 μM TP003. All incubations were performed for 1 hour at 4° C. in assay buffer. The total assay volume was 0.5 mL, containing 40 μg/well α1β3γ2, 30 μg/well α2β3γ2, 40 μg/well α3β3γ2 and 30 μg/well for α5β3γ2 of membrane protein. Incubations were terminated by filtration and washing with ice cold Tris-HCl buffer (50 mM, pH=7.4) over Whatman GF/B filters and the radioactivity of the filters was measured using liquid scintillation counting.
The % inhibition of [^3H]Ro15-1788 binding was plotted as a function of compound concentration and the IC50 calculated. From the IC50, the affinity (Ki) was calculated using the method of Cheng and Prusoff using the Kd values obtained for [^3H]Ro15-1788.

For a further experiment, the system named is human α2β3γ2 GABAARs. In words: In vitro electrophysiological recording assay (automated patch-clamp), α2-GABAAR relative efficacy. The format is cell-based. To be noted: % efficacy normalised to diazepam; GABA EC10-20; concentration generally >= 100 times Ki. The method, then:
The efficacy of modulators was evaluated using the automated patch-clamp platforms QPatch16 (Sophion, Copenhagen, Denmark) or SyncroPatch 384PE (Nanion, Germany).
For QPatch electrophysiology testing L(tk^−) cells stably expressing human α1β3γ2, α2β3γ2, α3β3γ2, α5β3γ2 GABAARs were used. HEK293 cells stably expressing human α1β3γ2L, α2β3γ2L, α3β3γ2L and α5β3γ2L GABAARs were used for the SyncroPatch 384PE experiments.
All experiments were carried out at room temperature (20-22° C.) using a standard whole cell procedure and physiological solutions. Gigaseals were formed upon execution of a combined suction/voltage protocol with subsequent increased suction leading to the whole-cell configuration.
The currents recorded were acquired at either 1 KHz or 2 KHz and filtered using a Bessel filter. Whole-cell currents were measured at a holding potential of-65 mV (QPatch) or −80 mV (SyncroPatch).
For QPatch experiments, the extracellular solution contained of: 145 mM NaCl, 4 mM KCl, 1 mM MgCl2, 2 mM CaCl2), 10 mM HEPES, 10 mM D-glucose (pH 7.4), and the intracellular solution consisted of: 96 mM KCl, 28 mM CsCl, 25 mM KOH, 4.3 mM CaCl2), 1.4 mM MgCl2, 10 mM EGTA, 10 mM HEPES, 3 mM MgATP (pH 7.2). The osmolarities of the extracellular and intracellular solutions were 305 and 295 mOsm respectively.
For SyncroPatch experiments, the extracellular recording solution contained: 140 mM NaCl, 4 mM KCl, 2 mM CaCl2), 1 mM MgCl2, 10 mM HEPES, 5 mM glucose (pH 7.4 with NaOH and osmolarity of c. 300-310 mOsm). The intracellular recording solution consisted of: 90 mM KCl, 50 mM KF, 1.5 mM MgCl2, 11.1 mM EGTA and 10 mM HEPES (pH 7.2 with KOH and osmolarity of c. 300 mOsm). 2 mM of NaATP was added to the intracellular solution on the day of testing.
The effects of modulators were evaluated in the presence of a submaximal GABA concentration, giving typically less than 30% activation of the response elicited by a saturating GABA concentration. To check and ensure baseline current stability before compound addition, two to five consecutive applications of GABA EC10-20 separated by wash steps were performed before compound addition. The test compound was applied 1 min at least prior to co-application with GABA EC10-20. Following a further wash step, a saturating concentration of GABA was applied at the end of each recording, allowing the accurate evaluation for each cell of the percentage baseline activation elicited by the submaximal GABA applied.
The compounds were first dissolved in DMSO as a 10 mM stock and then further diluted to the testing concentrations so that the final DMSO concentration in the extracellular recording solution was 0.1% (QPatch) or 0.2% (SyncroPatch).
The % efficacy of modulators was determined from the GABA elicited currents recorded in the presence and absence of the test compound, using the formula:
[((compound peak current−leak)−(GABA peak current-leak))/(GABA peak current−leak)]*100,
where ‘leak’ is the leak baseline current at the holding potential, ‘compound peak current’ is the current elicited by co-application of compound and GABA, and ‘GABA peak current’ is the current elicited by GABA alone at the last GABA application before compound addition. The results were presented as ‘relative efficacy’ for each compound generally at a concentration equal or higher than 100 times their determined Ki. The relative efficacy of a compound was calculated by normalising its % efficacy to the corresponding % efficacy of diazepam that was separately determined.
(The patch-clamp technique gives a direct electrical read-out from membranes.)

human α2β3γ2 GABAARs (benzodiazepine site), sequence (P47869 29-451): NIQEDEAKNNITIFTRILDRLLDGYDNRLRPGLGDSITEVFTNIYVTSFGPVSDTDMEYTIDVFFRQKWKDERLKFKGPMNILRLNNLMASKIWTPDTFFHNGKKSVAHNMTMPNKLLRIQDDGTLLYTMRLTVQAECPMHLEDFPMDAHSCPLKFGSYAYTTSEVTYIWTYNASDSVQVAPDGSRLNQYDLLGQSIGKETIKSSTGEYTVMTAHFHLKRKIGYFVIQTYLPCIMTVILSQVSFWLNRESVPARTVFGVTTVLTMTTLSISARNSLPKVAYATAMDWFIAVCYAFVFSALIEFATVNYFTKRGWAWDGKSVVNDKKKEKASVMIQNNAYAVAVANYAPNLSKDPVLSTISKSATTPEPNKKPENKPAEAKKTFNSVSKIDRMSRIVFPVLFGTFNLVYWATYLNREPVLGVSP
human α2β3γ2 GABAARs (benzodiazepine site), sequence (P28472 26-473 partner): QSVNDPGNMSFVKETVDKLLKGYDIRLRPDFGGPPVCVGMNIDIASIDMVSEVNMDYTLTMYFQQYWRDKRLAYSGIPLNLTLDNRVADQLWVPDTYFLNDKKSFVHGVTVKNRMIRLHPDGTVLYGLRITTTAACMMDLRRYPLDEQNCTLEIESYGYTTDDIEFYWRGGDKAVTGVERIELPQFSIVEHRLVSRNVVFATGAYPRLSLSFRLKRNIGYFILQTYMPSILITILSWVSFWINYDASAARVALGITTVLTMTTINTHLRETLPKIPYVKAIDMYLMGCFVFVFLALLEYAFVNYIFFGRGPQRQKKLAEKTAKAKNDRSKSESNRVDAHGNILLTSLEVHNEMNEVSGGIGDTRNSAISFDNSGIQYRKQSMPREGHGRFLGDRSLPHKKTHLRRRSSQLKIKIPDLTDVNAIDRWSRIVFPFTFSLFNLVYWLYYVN
human α2β3γ2 GABAARs (benzodiazepine site), sequence (P18507 40-475): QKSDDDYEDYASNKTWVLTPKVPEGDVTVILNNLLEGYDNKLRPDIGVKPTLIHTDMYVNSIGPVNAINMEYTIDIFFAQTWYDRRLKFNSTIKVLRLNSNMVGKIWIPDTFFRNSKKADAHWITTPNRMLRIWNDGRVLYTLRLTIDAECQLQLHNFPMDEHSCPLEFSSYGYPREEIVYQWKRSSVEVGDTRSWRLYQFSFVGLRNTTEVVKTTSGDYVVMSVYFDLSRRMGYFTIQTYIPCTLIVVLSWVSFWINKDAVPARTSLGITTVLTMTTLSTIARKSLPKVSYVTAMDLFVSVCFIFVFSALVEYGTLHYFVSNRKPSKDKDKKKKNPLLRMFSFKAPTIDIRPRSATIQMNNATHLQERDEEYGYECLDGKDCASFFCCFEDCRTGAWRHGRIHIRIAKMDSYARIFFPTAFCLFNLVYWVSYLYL

Consider `CCCNC(=O)c1c(N)c2cccc(-c3cnccc3F)c2[nH]c1=O` [Example 16, 4-Amino-8-(4-fluoropyridin-3-yl)-2-oxo-N-propyl-1,2-dihydroquinoline-3-carboxamide], for which the Ki – broadly, the dissociation constant of the complex between target and ligand, obtained from inhibition or displacement – in experiment [1] stood at 24.1 nM. Further, the “α2-GABAAR Relative Efficacy (vs. Diazepam)” value (shortened to “α2-GABAAR Relative Efficacy”) in the experiment on human α2β3γ2 GABAARs was 0.34.

With `CCCNC(=O)c1c(N)c2cccc(-c3cnccc3OCC)c2[nH]c1=O` [Example 19, 4-Amino-8-(4-ethoxypyridin-3-yl)-2-oxo-N-propyl-1,2-dihydroquinoline-3-carboxamide], in experiment [1], the Ki came out at 21.5 nM. The “α2-GABAAR Relative Efficacy” value in the experiment with human α2β3γ2 GABAARs came to 0.23.

Consider `CCCNC(=O)c1c(N)c2cccc(-c3cnccc3OC(C)C)c2[nH]c1=O` [Example 20, 4-Amino-8-(4-isopropoxypyridin-3-yl)-2-oxo-N-propyl-1,2-dihydroquinoline-3-carboxamide], for which, in experiment [1] (L(tk-) cell membranes, 4 nM [3H]Ro15-1788, read-out: α2-GABAAR Ki), the inhibition constant (Ki) amounted to 245 nM. Moreover, in the experiment on human α2β3γ2 GABAARs, the “α2-GABAAR Relative Efficacy” value is given as 0.16.

For `CCCNC(=O)c1c(N)c2cccc(-c3cnccc3COC)c2[nH]c1=O` [Example 21, 4-Amino-8-(4-(methoxymethyl)pyridin-3-yl)-2-oxo-N-propyl-1,2-dihydroquinoline-3-carboxamide], the inhibition constant Ki in experiment [1] was found to be 29.8 nM. In addition, the “α2-GABAAR Relative Efficacy” value in the experiment with human α2β3γ2 GABAARs is 0.12.

Turning to `CCCNC(=O)c1c(N)c2cccc(-c3cncc(F)c3)c2[nH]c1=O` [Example 22, 4-Amino-8-(5-fluoro-3-pyridyl)-2-oxo-N-propyl-1H-quinoline-3-carboxamide], the inhibitory constant (Ki) in experiment [1] was 13.6 nM. Besides, in the experiment with human α2β3γ2 GABAARs, the “α2-GABAAR Relative Efficacy” value worked out at 0.19.

As for `CCCNC(=O)c1c(N)c2cccc(-c3cncc(OC)c3C)c2[nH]c1=O` [Example 24, 4-Amino-8-(5-methoxy-4-methylpyridin-3-yl)-2-oxo-N-propyl-1,2-dihydroquinoline-3-carboxamide], the Ki in experiment [1] was found to be 4.11 nM. Moreover, the “α2-GABAAR Relative Efficacy” value in the experiment with human α2β3γ2 GABAARs is on record as 0.21.

For the molecule `CCCNC(=O)c1c(N)c2cccc(-c3cncc(OCC)c3)c2[nH]c1=O` [Example 26, 4-Amino-8-(5-ethoxypyridin-3-yl)-2-oxo-N-propyl-1,2-dihydroquinoline-3-carboxamide], the inhibition constant Ki in experiment [1] was 5.58 nM. For the same molecule, the “α2-GABAAR Relative Efficacy” value with human α2β3γ2 GABAARs is on record as 0.15.

Consider `CCCNC(=O)c1c(N)c2cccc(-c3cncc(OC4CC4)c3)c2[nH]c1=O` [Example 28, 4-Amino-8-(5-cyclopropoxypyridin-3-yl)-2-oxo-N-propyl-1,2-dihydroquinoline-3-carboxamide], for which the Ki in experiment [1] is 9.07 nM. Besides, the “α2-GABAAR Relative Efficacy” value in the experiment on human α2β3γ2 GABAARs turned out to be 0.2.

Take `CCCNC(=O)c1c(N)c2cccc(-c3cncc(OCc4ccc(F)cn4)c3)c2[nH]c1=O` [Example 29, 4-Amino-8-(5-((5-fluoropyridin-2-yl)methoxy)pyridin-3-yl)-2-oxo-N-propyl-1,2-dihydroquinoline-3-carboxamide]: the inhibition constant Ki in experiment [1] worked out at 6.66 nM. Besides, the “α2-GABAAR Relative Efficacy” value with human α2β3γ2 GABAARs was 0.22.

For `CCCNC(=O)c1c(N)c2cccc(-c3ccc(CO)nc3)c2[nH]c1=O` [Example 30, 4-Amino-8-[6-(hydroxymethyl)-3-pyridyl]-2-oxo-N-propyl-1H-quinoline-3-carboxamide], the Ki in experiment [1] turned out to be 4.76 nM. Also, the “α2-GABAAR Relative Efficacy” value with human α2β3γ2 GABAARs was 0.43.

As for `CCCNC(=O)c1c(N)c2cccc(-c3ccncc3)c2[nH]c1=O` [Example 31, 4-Amino-2-oxo-N-propyl-8-(pyridin-4-yl)-1,2-dihydroquinoline-3-carboxamide], the inhibition constant Ki in experiment [1] was found to be 3.28 nM. For the same molecule, in the experiment on human α2β3γ2 GABAARs, the “α2-GABAAR Relative Efficacy” value is recorded as 0.24.

On to `CCCNC(=O)c1c(N)c2cccc(-c3cc(C)ncc3F)c2[nH]c1=O` [Example 33, 4-Amino-8-(5-fluoro-2-methyl-4-pyridyl)-2-oxo-N-propyl-1H-quinoline-3-carboxamide], for which, in experiment [1], the Ki turned out to be 0.67 nM. Also, the “α2-GABAAR Relative Efficacy” value with human α2β3γ2 GABAARs came out at 0.39.

Turning to `CCCNC(=O)c1c(N)c2cccc(-c3cc(OCC)ncc3F)c2[nH]c1=O` [Example 35, 4-Amino-8-(2-ethoxy-5-fluoropyridin-4-yl)-2-oxo-N-propyl-1,2-dihydroquinoline-3-carboxamide], the Ki in experiment [1] was 2.45 nM. Further, in the experiment on human α2β3γ2 GABAARs, the “α2-GABAAR Relative Efficacy” value was found to be 0.52.

`CCCNC(=O)c1c(N)c2cccc(-c3ccncn3)c2[nH]c1=O` [Example 36, 4-Amino-2-oxo-N-propyl-8-pyrimidin-4-yl-1H-quinoline-3-carboxamide]: in experiment [1], the inhibition constant Ki came out at 3.69 nM. For the same molecule, the “α2-GABAAR Relative Efficacy” value in the experiment on human α2β3γ2 GABAARs turned out to be 0.05.

On to `CCCNC(=O)c1c(N)c2cccc(-c3ncncc3OC)c2[nH]c1=O` [Example 37, 4-Amino-8-(5-methoxypyrimidin-4-yl)-2-oxo-N-propyl-1H-quinoline-3-carboxamide], for which the inhibition constant Ki in experiment [1] is 7.55 nM. In addition, in the experiment with human α2β3γ2 GABAARs, the “α2-GABAAR Relative Efficacy” value came out at 0.78.

Regarding `CCCNC(=O)c1c(N)c2cccc(-c3ccnc(C)n3)c2[nH]c1=O` [Example 38, 4-Amino-8-(2-methylpyrimidin-4-yl)-2-oxo-N-propyl-1,2-dihydroquinoline-3-carboxamide], the Ki in experiment [1] was 1.09 nM. Besides, in the experiment on human α2β3γ2 GABAARs, the “α2-GABAAR Relative Efficacy” value worked out at 0.18.

`CCCNC(=O)c1c(N)c2cccc(-c3nc(C)ncc3C#N)c2[nH]c1=O` [Example 39, 4-Amino-8-(5-cyano-2-methyl-pyrimidin-4-yl)-2-oxo-N-propyl-1H-quinoline-3-carboxamide]: the inhibition constant (Ki) in experiment [1] was 9.31 nM. Also, in the experiment with human α2β3γ2 GABAARs, the “α2-GABAAR Relative Efficacy” value was −0.06.

In the case of `CCCNC(=O)c1c(N)c2cccc(-c3nc(N)ncc3F)c2[nH]c1=O` [Example 41, 4-Amino-8-(2-amino-5-fluoropyrimidin-4-yl)-2-oxo-N-propyl-1,2-dihydroquinoline-3-carboxamide], in experiment [1], the Ki came to 0.4 nM. In addition, the “α2-GABAAR Relative Efficacy” value in the experiment with human α2β3γ2 GABAARs was 0.13.
